Data reported in ChEMBL document CHEMBL3603774, “Novel 5-functionalized-pyrazoles: Synthesis, characterization and pharmacological screening” (Bioorg Med Chem Lett, 2015).
In brackets after ≈: the same amount, converted by molar mass.

Legend:
Bacillus cereus [1] = test: Antibacterial activity against Bacillus cereus MTCC 8372 at 50 ug/ml after 24 hrs by disc diffusion method; format: functional; conditions: MTCC 8372, 24 h, read-out: IZ
Bacillus cereus [2] = test: Antibacterial activity against Bacillus cereus MTCC 8372 at 100 ug/ml after 24 hrs by disc diffusion method; format: functional; conditions: MTCC 8372, 24 h, read-out: IZ
Staphylococcus aureus [3] = test: Antibacterial activity against Staphylococcus aureus MTCC 96 at 50 ug/ml after 24 hrs by disc diffusion method; format: functional; conditions: MTCC 96, 24 h, read-out: IZ
Staphylococcus aureus [4] = test: Antibacterial activity against Staphylococcus aureus MTCC 96 at 100 ug/ml after 24 hrs by disc diffusion method; format: functional; conditions: MTCC 96, 24 h, read-out: IZ
Escherichia coli [5] = test: Antibacterial activity against Escherichia coli MTCC 724 at 50 ug/ml after 24 hrs by disc diffusion method; format: functional; conditions: MTCC 724, 24 h, read-out: IZ
Escherichia coli [6] = test: Antibacterial activity against Escherichia coli MTCC 724 at 100 ug/ml after 24 hrs by disc diffusion method; format: functional; conditions: MTCC 724, 24 h, read-out: IZ
Klebsiella pneumoniae [7] = test: Antibacterial activity against Klebsiella pneumoniae MTCC 3384 at 50 ug/ml after 24 hrs by disc diffusion method; format: functional; conditions: MTCC 3384, 24 h, read-out: IZ
Klebsiella pneumoniae [8] = test: Antibacterial activity against Klebsiella pneumoniae MTCC 3384 at 100 ug/ml after 24 hrs by disc diffusion method; format: functional; conditions: MTCC 3384, 24 h, read-out: IZ
Aspergillus flavus [9] = test: Antifungal activity against Aspergillus flavus MTCC 873 at 50 ug/ml after 24 hrs by disc diffusion method; format: functional; conditions: MTCC 873, 24 h, read-out: IZ
Aspergillus flavus [10] = test: Antifungal activity against Aspergillus flavus MTCC 873 at 100 ug/ml after 24 hrs by disc diffusion method; format: functional; conditions: MTCC 873, 24 h, read-out: IZ
Aspergillus niger [11] = test: Antifungal activity against Aspergillus niger MTCC 281 at 50 ug/ml after 24 hrs by disc diffusion method; format: functional; conditions: MTCC 281, 24 h, read-out: IZ
Bacillus cereus [12] = test: Antibacterial activity against Bacillus cereus MTCC 8372 after 24 hrs by microdilution method; format: functional; conditions: MTCC 8372, 24 h
Bacillus cereus [13] = test: Antibacterial activity against Bacillus cereus MTCC 8372 assessed as concentration required to completely destroy test microorganisms after 24 hrs; format: functional; conditions: MTCC 8372, 24 h
Staphylococcus aureus [14] = test: Antibacterial activity against Staphylococcus aureus MTCC 96 after 24 hrs by microdilution method; format: functional; conditions: MTCC 96, 24 h
Staphylococcus aureus [15] = test: Antibacterial activity against Staphylococcus aureus MTCC 96 assessed as concentration required to completely destroy test microorganisms after 24 hrs; format: functional; conditions: MTCC 96, 24 h
Escherichia coli [16] = test: Antibacterial activity against Escherichia coli MTCC 724 after 24 hrs by microdilution method; format: functional; conditions: MTCC 724, 24 h
Escherichia coli [17] = test: Antibacterial activity against Escherichia coli MTCC 724 assessed as concentration required to completely destroy test microorganisms after 24 hrs; format: functional; conditions: MTCC 724, 24 h
Klebsiella pneumoniae [18] = test: Antibacterial activity against Klebsiella pneumoniae MTCC 3384 after 24 hrs by microdilution method; format: functional; conditions: MTCC 3384, 24 h
Klebsiella pneumoniae [19] = test: Antibacterial activity against Klebsiella pneumoniae MTCC 3384 assessed as concentration required to completely destroy test microorganisms after 24 hrs; format: functional; conditions: MTCC 3384, 24 h
Aspergillus flavus [20] = test: Antifungal activity against Aspergillus flavus MTCC 873 after 48 hrs by microdilution method; format: functional; conditions: MTCC 873, 48 h
Aspergillus flavus [21] = test: Antifungal activity against Aspergillus flavus MTCC 873 assessed as concentration required to completely destroy test microorganisms after 24 hrs; format: functional; conditions: MTCC 873, 24 h
Aspergillus niger [22] = test: Antifungal activity against Aspergillus niger MTCC 281 after 48 hrs by microdilution method; format: functional; conditions: MTCC 281, 48 h
Aspergillus niger [23] = test: Antifungal activity against Aspergillus niger MTCC 281 assessed as concentration required to completely destroy test microorganisms after 24 hrs; format: functional; conditions: MTCC 281, 24 h
Aspergillus niger [24] = test: Antifungal activity against Aspergillus niger MTCC 281 at 100 ug/ml after 24 hrs by disc diffusion method; format: functional; conditions: MTCC 281, 24 h, read-out: IZ
Alpha amylase = molecular target: T1, Alpha amylase (Homo sapiens, UniProt P0DUB6); test: Inhibition of alpha-amylase (unknown origin) using starch as substrate after 30 mins by spectrophotometer analysis
T1 sequence (P0DUB6 whole entry): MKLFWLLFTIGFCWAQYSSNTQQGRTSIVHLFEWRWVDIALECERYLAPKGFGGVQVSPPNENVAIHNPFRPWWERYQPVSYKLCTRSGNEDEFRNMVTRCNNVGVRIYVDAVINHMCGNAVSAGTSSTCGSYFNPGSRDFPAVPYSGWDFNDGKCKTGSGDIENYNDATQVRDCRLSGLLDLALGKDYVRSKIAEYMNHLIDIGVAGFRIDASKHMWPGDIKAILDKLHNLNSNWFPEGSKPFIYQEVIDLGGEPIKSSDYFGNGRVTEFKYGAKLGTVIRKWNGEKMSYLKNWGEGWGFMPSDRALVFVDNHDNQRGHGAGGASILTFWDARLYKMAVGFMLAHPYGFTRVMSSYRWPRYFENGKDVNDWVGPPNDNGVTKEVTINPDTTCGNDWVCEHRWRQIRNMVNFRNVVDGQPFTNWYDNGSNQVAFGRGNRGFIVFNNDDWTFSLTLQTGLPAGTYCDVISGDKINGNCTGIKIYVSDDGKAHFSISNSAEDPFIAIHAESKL

[25] = Inhibition of alpha-glucosidase (unknown origin) using p-nitrophenol glycoside as substrate after 30 mins by colorimetric analysis; design: species or system Homo sapiens

Structure (SMILES)	zone of inhibition at 50 µg/mL (Bacillus cereus [1]) [mm]	zone of inhibition at 100 µg/mL (Bacillus cereus [2]) [mm]	zone of inhibition at 50 µg/mL (Staphylococcus aureus [3]) [mm]	zone of inhibition at 100 µg/mL (Staphylococcus aureus [4]) [mm]	zone of inhibition at 50 µg/mL (Escherichia coli [5]) [mm]	zone of inhibition at 100 µg/mL (Escherichia coli [6]) [mm]	zone of inhibition at 50 µg/mL (Klebsiella pneumoniae [7]) [mm]	zone of inhibition at 100 µg/mL (Klebsiella pneumoniae [8]) [mm]	zone of inhibition at 50 µg/mL (Aspergillus flavus [9]) [mm]	zone of inhibition at 100 µg/mL (Aspergillus flavus [10]) [mm]	zone of inhibition at 50 µg/mL (Aspergillus niger [11]) [mm]	MIC (Bacillus cereus [12]) [µg/mL]	MBC (Bacillus cereus [13]) [µg/mL]	MIC (Staphylococcus aureus [14]) [µg/mL]	MBC (Staphylococcus aureus [15]) [µg/mL]	MIC (Escherichia coli [16]) [µg/mL]	MBC (Escherichia coli [17]) [µg/mL]	MIC (Klebsiella pneumoniae [18]) [µg/mL]	MBC (Klebsiella pneumoniae [19]) [µg/mL]	MIC (Aspergillus flavus [20]) [µg/mL]	further results
CCOC(=O)c1c(-c2ccccc2)nn(-c2ccccc2)c1Cn1cnc2cc([N+](=O)[O-])ccc21	5	10	6	12	8	18	6	11	6	10	5	35 (≈ 74.9 µM)	200 (≈ 428 µM)	25 (≈ 53.5 µM)	190 (≈ 406 µM)	25 (≈ 53.5 µM)	180 (≈ 385 µM)	25 (≈ 53.5 µM)	185 (≈ 396 µM)	55 (≈ 118 µM)	MFC (Aspergillus flavus [21]): 290 µg/mL (≈ 620 µM); MIC (Aspergillus niger [22]): 65 µg/mL (≈ 139 µM); MFC (Aspergillus niger [23]): 280 µg/mL (≈ 599 µM); zone of inhibition at 100 µg/mL (Aspergillus niger [24]): 10 mm; IC50 (Alpha amylase): 30 µg/mL (≈ 64.2 µM); IC50 [25]: 30 µg/mL (≈ 64.2 µM)
CCOC(=O)c1c(-c2ccccc2)nn(-c2ccccc2)c1Cn1c(S)nc2ccccc21	8	11	8	12	8	16	8	14	14	18	10	20 (≈ 44 µM)	160 (≈ 352 µM)	20 (≈ 44 µM)	150 (≈ 330 µM)	25 (≈ 55 µM)	175 (≈ 385 µM)	25 (≈ 55 µM)	160 (≈ 352 µM)	50 (≈ 110 µM)	MFC (Aspergillus flavus [21]): 290 µg/mL (≈ 638 µM); MIC (Aspergillus niger [22]): 40 µg/mL (≈ 88 µM); MFC (Aspergillus niger [23]): 290 µg/mL (≈ 638 µM); zone of inhibition at 100 µg/mL (Aspergillus niger [24]): 16 mm; IC50 (Alpha amylase): 40 µg/mL (≈ 88 µM); IC50 [25]: 45 µg/mL (≈ 99 µM)
CCOC(=O)c1c(-c2ccccc2)nn(-c2ccccc2)c1COc1ccccc1C=O	4	16	2	12	3	8	6	9	10	5	10	45 (≈ 106 µM)	250 (≈ 586 µM)	55 (≈ 129 µM)	220 (≈ 516 µM)	65 (≈ 152 µM)	250 (≈ 586 µM)	85 (≈ 199 µM)	260 (≈ 610 µM)	50 (≈ 117 µM)	MFC (Aspergillus flavus [21]): 270 µg/mL (≈ 633 µM); MIC (Aspergillus niger [22]): 50 µg/mL (≈ 117 µM); MFC (Aspergillus niger [23]): 225 µg/mL (≈ 528 µM); zone of inhibition at 100 µg/mL (Aspergillus niger [24]): 10 mm; IC50 (Alpha amylase): 40 µg/mL (≈ 93.8 µM); IC50 [25]: 40 µg/mL (≈ 93.8 µM)
CCOC(=O)c1c(-c2ccccc2)nn(-c2ccccc2)c1COc1ccc(C=O)cc1	3	3	2	8	10	16	8	12	20	5	12	40 (≈ 93.8 µM)	210 (≈ 492 µM)	40 (≈ 93.8 µM)	210 (≈ 492 µM)	55 (≈ 129 µM)	235 (≈ 551 µM)	55 (≈ 129 µM)	230 (≈ 539 µM)	40 (≈ 93.8 µM)	MFC (Aspergillus flavus [21]): 275 µg/mL (≈ 645 µM); MIC (Aspergillus niger [22]): 45 µg/mL (≈ 106 µM); MFC (Aspergillus niger [23]): 260 µg/mL (≈ 610 µM); zone of inhibition at 100 µg/mL (Aspergillus niger [24]): 10 mm; IC50 (Alpha amylase): 60 µg/mL (≈ 141 µM); IC50 [25]: 65 µg/mL (≈ 152 µM)
